Measured values as given in US20220306695A1, “COMPSTATIN ANALOGUES AND THEIR MEDICAL USES” (priority 2019, published 2022).
Positions of bridges follow the written chain, without caps; N, C: chain ends. Non-standard residues stand in square brackets, D forms with d. Residues, ends and D or L forms follow the SMILES beside them. Trp(1-Me) = Cn1cc(C[C@H](N)C(=O)O)c2ccccc21; 1Nal = N[C@@H](Cc1cccc2ccccc12)C(=O)O; 2Nal = N[C@@H](Cc1ccc2ccccc2c1)C(=O)O; Sar = CNCC(=O)O

Assays:
[1] = Solubility test at 10 mg/mL (visual inspection and light scattering); assay type: physicochemical; details: for Solubility, Condition 1 Acetate pH 4: 10 mg/mL compound in 100 mM acetate pH 4; for Solubility, Condition 2 Acetate pH 5: 10 mg/mL compound in 100 mM acetate pH 5; for Solubility, Condition 3 Phosphate pH 6: 10 mg/mL compound in 100 mM phosphate pH 6; for Solubility, Condition 4 Phosphate pH 7: 10 mg/mL compound in 100 mM phosphate pH 7; for Solubility, Condition 5 Phosphate pH 7.5: 10 mg/mL compound in 100 mM phosphate pH 7.5
[2] = tested on: classical complement pathway; test: In vitro haemolysis assay (inhibition of classical complement pathway); assay type: cell-based, human; details: Table 3; human serum, sensitized sheep red blood cells; read-out: IC50[nM], in vitro analysis of inhibition of hemolysis
Summary of the method: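 Serially diluted compound (9 points) was preincubated 15 min at room temperature with diluted human serum, titrated per batch to give 70-90% maximal haemolysis, in Tris/casein buffer pH 7.4 with Mg2+/Ca2+. Antibody-sensitized sheep erythrocytes were then added for 30 min at 37° C, and the reaction was stopped with EDTA. Haemolysis was read at A405, with IC50 from 4PL fit.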

Row | SMILES | Solubility, Condition 1 Acetate pH 4 [1] | Solubility, Condition 2 Acetate pH 5 [1] | Solubility, Condition 3 Phosphate pH 6 [1] | Solubility, Condition 4 Phosphate pH 7 [1] | Solubility, Condition 5 Phosphate pH 7.5 [1] | IC50 [2]
1 | CC[C@H](C)[C@H](NC(=O)[C@H](C)NC(=O)[C@H](CO)NC(=O)CNC(=O)[C@H](CCC(=O)O)NC(C)=O)C(=O)N[C@H]1CSSC[C@@H](C(=O)N(C)CC(=O)N[C@@H](CCC(=O)O)C(N)=O)NC(=O)[C@H](CCCNC(=N)N)NC(=O)[C@H](Cc2c[nH]cn2)NC(=O)[C@H](CCC(=O)O)NC(=O)CNC(=O)[C@H](Cc2c[nH]c3ccccc23)NC(=O)[C@H](CC(=O)O)NC(=O)[C@H](CCC(N)=O)NC(=O)[C@H](Cc2ccc3ccccc3c2)NC(=O)[C@H]([C@@H](C)CC)NC1=O [Compound 50] (Ac-EGSAICI[2Nal]QDWGEHRC[Sar]E-NH2; disulfide 6-16) | − (denotes lack of solubility at the given condition, as UV absorbance at 340 nm exceeds 0.1 AU and/or it is visibly turbid or contains particles.) | − (denotes lack of solubility at the given condition, as UV absorbance at 340 nm exceeds 0.1 AU and/or it is visibly turbid or contains particles.) | + (denotes solubility at the given condition, as determined by UV absorbance being less than 0.1 AU at 340 nm and the sample being clear when manually inspected.) | + (denotes solubility at the given condition, as determined by UV absorbance being less than 0.1 AU at 340 nm and the sample being clear when manually inspected.) | + (denotes solubility at the given condition, as determined by UV absorbance being less than 0.1 AU at 340 nm and the sample being clear when manually inspected.) | < 100 nM
2 | CC[C@H](C)[C@H](NC(C)=O)C(=O)N[C@H]1CSSC[C@@H](C(=O)N[C@H](C(=O)NCC(=O)N[C@@H](C)C(=O)N[C@@H](CCC(=O)O)C(=O)N[C@@H](CO)C(N)=O)[C@@H](C)O)NC(=O)[C@H](CCCNC(=N)N)NC(=O)[C@H](Cc2c[nH]cn2)NC(=O)[C@H](CCC(=O)O)NC(=O)CNC(=O)[C@H](Cc2c[nH]c3ccccc23)NC(=O)[C@H](CC(=O)O)NC(=O)[C@H](CCC(N)=O)NC(=O)[C@H](Cc2cn(C)c3ccccc23)NC(=O)[C@H]([C@@H](C)CC)NC1=O [Compound 51] (Ac-ICI[Trp(1-Me)]QDWGEHRCTGAES-NH2; disulfide 2-12) | − (denotes lack of solubility at the given condition, as UV absorbance at 340 nm exceeds 0.1 AU and/or it is visibly turbid or contains particles.) | − (denotes lack of solubility at the given condition, as UV absorbance at 340 nm exceeds 0.1 AU and/or it is visibly turbid or contains particles.) | + (denotes solubility at the given condition, as determined by UV absorbance being less than 0.1 AU at 340 nm and the sample being clear when manually inspected.) | + (denotes solubility at the given condition, as determined by UV absorbance being less than 0.1 AU at 340 nm and the sample being clear when manually inspected.) | + (denotes solubility at the given condition, as determined by UV absorbance being less than 0.1 AU at 340 nm and the sample being clear when manually inspected.) | < 100 nM
3 | CC[C@H](C)[C@H](NC(C)=O)C(=O)N[C@H]1CSSC[C@@H](C(=O)N[C@H](C(=O)NCC(=O)N[C@@H](C)C(=O)N[C@@H](CCC(=O)O)C(=O)N[C@@H](CO)C(N)=O)[C@@H](C)O)NC(=O)[C@H](CCCNC(=N)N)NC(=O)[C@H](Cc2c[nH]cn2)NC(=O)[C@H](CCC(=O)O)NC(=O)CNC(=O)[C@H](Cc2c[nH]c3ccccc23)NC(=O)[C@H](CC(=O)O)NC(=O)[C@H](CCC(N)=O)NC(=O)[C@H](Cc2ccc3ccccc3c2)NC(=O)[C@H]([C@@H](C)CC)NC1=O [Compound 52] (Ac-ICI[2Nal]QDWGEHRCTGAES-NH2; disulfide 2-12) | − (denotes lack of solubility at the given condition, as UV absorbance at 340 nm exceeds 0.1 AU and/or it is visibly turbid or contains particles.) | − (denotes lack of solubility at the given condition, as UV absorbance at 340 nm exceeds 0.1 AU and/or it is visibly turbid or contains particles.) | + (denotes solubility at the given condition, as determined by UV absorbance being less than 0.1 AU at 340 nm and the sample being clear when manually inspected.) | + (denotes solubility at the given condition, as determined by UV absorbance being less than 0.1 AU at 340 nm and the sample being clear when manually inspected.) | + (denotes solubility at the given condition, as determined by UV absorbance being less than 0.1 AU at 340 nm and the sample being clear when manually inspected.) | < 100 nM
4 | CC[C@H](C)[C@H](NC(=O)[C@H](C)NC(=O)[C@H](CO)NC(=O)CNC(=O)[C@H](CCC(=O)O)NC(C)=O)C(=O)N[C@H]1CSSC[C@@H](C(=O)N[C@H](C(=O)N[C@@H](CCC(=O)O)C(N)=O)[C@@H](C)O)NC(=O)[C@H](CCCNC(=N)N)NC(=O)[C@H](Cc2c[nH]cn2)NC(=O)[C@H](CCC(=O)O)NC(=O)CNC(=O)[C@H](Cc2c[nH]c3ccccc23)NC(=O)[C@H](CC(=O)O)NC(=O)[C@H](CCC(N)=O)NC(=O)[C@H](Cc2c[nH]c3ccccc23)NC(=O)[C@H]([C@@H](C)CC)NC1=O [Compound 55] (Ac-EGSAICIWQDWGEHRCTE-NH2; disulfide 6-16) | − (denotes lack of solubility at the given condition, as UV absorbance at 340 nm exceeds 0.1 AU and/or it is visibly turbid or contains particles.) | − (denotes lack of solubility at the given condition, as UV absorbance at 340 nm exceeds 0.1 AU and/or it is visibly turbid or contains particles.) | + (denotes solubility at the given condition, as determined by UV absorbance being less than 0.1 AU at 340 nm and the sample being clear when manually inspected.) | + (denotes solubility at the given condition, as determined by UV absorbance being less than 0.1 AU at 340 nm and the sample being clear when manually inspected.) | + (denotes solubility at the given condition, as determined by UV absorbance being less than 0.1 AU at 340 nm and the sample being clear when manually inspected.) | < 250 nM
5 | CC[C@H](C)[C@@H]1NC(=O)[C@@H](NC(=O)[C@H](Cc2ccccc2)NC(=O)[C@H](C)NC(=O)[C@H](CO)NC(=O)CNC(=O)[C@H](CCC(=O)O)NC(C)=O)CSSC[C@@H](C(=O)N[C@H](C(=O)N[C@@H](CCC(=O)O)C(N)=O)[C@@H](C)O)NC(=O)[C@H](CCCNC(=N)N)NC(=O)[C@H](Cc2c[nH]cn2)NC(=O)[C@H](CCC(=O)O)NC(=O)CNC(=O)[C@H](Cc2c[nH]c3ccccc23)NC(=O)[C@H](CC(=O)O)NC(=O)[C@H](CCC(N)=O)NC(=O)[C@H](Cc2cccc3ccccc23)NC1=O [Compound 56] (Ac-EGSAFCI[1Nal]QDWGEHRCTE-NH2; disulfide 6-16) | − (denotes lack of solubility at the given condition, as UV absorbance at 340 nm exceeds 0.1 AU and/or it is visibly turbid or contains particles.) | − (denotes lack of solubility at the given condition, as UV absorbance at 340 nm exceeds 0.1 AU and/or it is visibly turbid or contains particles.) | + (denotes solubility at the given condition, as determined by UV absorbance being less than 0.1 AU at 340 nm and the sample being clear when manually inspected.) | + (denotes solubility at the given condition, as determined by UV absorbance being less than 0.1 AU at 340 nm and the sample being clear when manually inspected.) | + (denotes solubility at the given condition, as determined by UV absorbance being less than 0.1 AU at 340 nm and the sample being clear when manually inspected.) | < 100 nM
